# Values joined by “and” are separate entries in the source; they are usually repeats but may differ in a detail not shown here. Equal entries are not always repeated. Structures can show the parent of a compound that is named as a salt. Where two headings read alike, the source gives them in different places. Where a SMILES comes first, the peptide text is derived from it.
# Assays:
# [1] = Estimation of solubility of the test substance in H2O; assay type: physicochemical
# [2] = Estimation of the interaction between oleic acid and the test substance; assay type: physicochemical
# [3] = pH of aqueous solution of solubilizing compound mixed with oleic acid; assay type: physicochemical; details: solubilizing compound in water with 0.833 mol equivalents of oleic acid
# [4] = log P of the test substance
# [5] = Dynamic laser light scattering (DLS) of oleic acid micro-/nanoemulsions; assay type: physicochemical; details: for Mean Size by Intensity: DLS, emulsion with oleic acid; for Part: percentage of the peak in the sample
# [6] = water (H2O), test substance mixed with oleic acid
Compound,Interaction with Oleic Acid [2],logP (physchem),pH [3],Mean Size by Intensity [5] [nm],Part [5] [%],further results
Nc1nc(N)nc(N)n1 [Melamine],"X, S",-0.961,8.25,,,Dissolved (H2O) [1]: (X)
Aminophenylacetic acid [reference compound],((X)),,9.23,,,Dissolved (H2O) [1]: (X); log P [4]: 0.73
"CC(=O)NC1CCSC1=O (racemic) [DL-N-Acetylhomocysteine thiolactone, reference compound]",,,10.70,,,
N=C(N)N[C@@H](CCC(=O)O)C(=O)O [(S)-(−)-2-Guanidinoglutaric acid],"X, E",,10.15,,,"logP [4, 6]: -3.14"
N=C(N)NCCC[C@H](N)C(=O)N[C@@H](Cc1ccccc1)C(=O)O [Arg-Phe],,,,,,logP [4]: -3.34
CC(=O)O.CNC(=N)NCCC[C@H](N)C(=O)O [N-ω-monomethyl-L-arginine acetate],"X, E",,8.49,,,
Cc1c[nH]cn1,"X, E/S",,8.90,224,96.7,
"CN(C)C(=N)NC(=N)N.Cl [1,1-Dimethylbiguanide hydrochloride, reference compound]",,,9.20,,,
C[C@@H](N[C@@H](CCCN=C(N)N)C(=O)O)C(=O)O [D-(+)-Octopine],"X, E",,6.70,435,94.7,
NC(N)=NCC(=O)O [Guanidine acetic acid],"(X), E/S",,6.20,,,Dissolved (H2O) [1]: ((X)); log P [4]: −2.387
N=C(N)NCCCC(=O)O [4-Guanidinobutyric acid],"X, E",-3.44,10.41,,,
Poly-L-arginine HCl [Poly-L-arginine HCl (70.000-150.000 MW)],"X, S",,,,,
N=C(N)NCCCCN.O=S(=O)(O)O [Agmatin sulfate],"X, S",-1.81,10.53,,,
NC(N)=NOCC[C@H](N)C(=O)O [L-Canavanine free base],"(X), S, E and X, E",,8.67 and 9.04,,,
"4-(4,6-Diamino-2,2-dimethyl-2H-[1,3,5]triazine-1-yl","X, E, S",,11.28,,,Dissolved (H2O) [1]: (X)
"O=C(O)CCCNC1=NCCN1 [4-(4,5-Dihydro-1H-imidazol-2-ylamino)-butyric acid]","X, E",,8.63 and 11.5,627,58.9,"logP [4, 6]: -1.6"
N=C(N)NCCC(=O)O [3-Guanidinopropionic acid],"X, E",-3.77,11.71,153,64.7,
"NCC(=O)N[C@@H](Cc1ccccc1)C(=O)O [Gly-Phe, reference compound] (H-Gly-Phe-OH; N-terminus and C-terminus assumed)",,,,,,logP [4]: -0.65
NC(N)=NCCCC[C@H](N)C(=O)O [H-Homoarg-OH],"X, E",,8.66,107,68.5,
"CN/C(=N/CCSCc1nc[nH]c1C)NC#N [Cimetidine, 2-cyan-1-methyl-3-[2-(5-methylimidazol-4-ylmethylsulfanyl)-ethyl]-guanidine, reference compound]","X, E",0.19,9.54,239,67.2,Dissolved (H2O) [1]: ((X))
"N=C(N)NCCC[C@H](NC(=O)[C@@H](N)Cc1ccc(O)cc1)C(=O)O [Tyr-Arg (Kyotorphin acetate), L-tyrosyl-L-arginine]","X, E",-4,8.54,,,
N=C(N)NC(N)=O.O.O=S(=O)(O)O [N-Guanylurea sulfate salt hydrate],"X, E",3.54,,,,
"CC(=O)O.CC(=O)O.N=C(NCCCCCCNC(=N)NC(=N)Nc1ccc(Cl)cc1)NC(=N)Nc1ccc(Cl)cc1 [Chlorhexidine diacetate, 1,1′-hexamethylenbis[5-(4-chlorphenyl)-biguanide], reference compound]","X, S",,6.51 and 9.58,,,Dissolved (H2O) [1]: (X)
Argininosuccinic acid disodium salt hydrate,"X, E",,9.93,721,74.6,
NC(=NCCC[C@H](N)C(=O)O)N[N+](=O)[O-] [N-ω-Nitro-L-arginine],"X, E",,11.95,85.5,46.7,
"Cc1ccccc1NC(=N)Nc1ccccc1C [1,3-Di-o-tolyl-guanidine]",,,,,,"logP [4, 6]: 3.01"
CN(CC(=O)O)C(=N)N [Creatine],"(X), E",-0.884,,,,

# Continued, in another order:
Interaction with Oleic Acid [2],logP (physchem),pH [3],Mean Size by Intensity [5] [nm],Part [5] [%],Compound,further results
,-0.67,,,,c1c[nH]cn1 [Imidazole],
"X, S, (E)",,,426,60.7,"CC(=O)NCC(=O)O.CC(=O)NCC(=O)O.N=C(N)c1ccc(N=NNc2ccc(C(=N)N)cc2)cc1 [Diminazene aceturate (basic), Diminazene aceturate, reference compound]",
"X, S",,5.61 and 8.61,,,"polyhexamethylenbiguanide (PHMB) [Polyhexanide −5% (2300 bis 3100 MW), reference compound]",
"X, E, S",,9.51,325,93.9,NC(=NCC[C@H](N)C(=O)O)NO [N-ω-Hydroxy-L-norarginine],
"X, E",,9.45,22.9,87.4,"CN(C)C(N)=NCCC[C@H](N)C(=O)O.Cl.Cl [NG,NG-Dimethylarginine dihydrochloride]",
,,8.59,341,96.3,"NC(N)=O [Urea, reference compound]",Interaction with Oleic Acid ([2]; 60° C.): ((X))
"X, S",-1.24,,,,"NC(N)=NS(=O)(=O)c1ccc(N)cc1 [Sulfaguanidine, 4-amino-N-(diaminomethylen)benzensulfonamide, reference compound]",
"X, E",-1.03,12.71,,,N=C(N)N [Guanidinehydrochloride],
"X, E",,9.12,349,94.1,CC(=N)NCCCC[C@H](N)C(=O)O [L-NIL],
"X, E",-3.81,11.05,113,87.2,Cl.N=C(N)NC[C@H](N)C(=O)O [L-2-Amino-3-guanidinopropionic acid hydrochloride],
"X, S",-2.11,11.35,,,COC(=O)[C@H](N)CCCNC(=N)N.Cl.Cl [D-arginine methyl ester dihydrochloride],
